Laboratory results taken from US20210222225A1, “Medium for Disk Diffusion Method to Evaluate Antibiotic Sensitivity” (priority 2018, published 2021).

Key:
KPN K3070_S = assay: Colistin disk diffusion, guanidine hydrochloride medium, K3070_S; format: cell-based, Klebsiella pnemoniae; details: 30% agar
Experimental: (§1) A concentration of agar particles (BD Diagnostic, Sparks, Md., USA) in Mueller-Hinton broth medium (BD Diagnostic) was adjusted to 5.1 g/L, which is 30% of 17 g/L, and guanidine hydrochloride was added to a concentration of 500 μg/ml, 50 μg/ml, or 5 μg/ml. Then, solidification was performed. On a surface of each medium thus prepared was evenly inoculated each of colistin-susceptible (S) or -resistant (R) Acinetobacter baumannii (ABA) strain, colistin-susceptible (S) or -resistant (R) Klebsiella pnemoniae (KPN) strain, and colistin-susceptible (S) or -resistant (R) Pseudomonas aeruginosa (PAE) strain, and a colistin disk was placed thereon. Then, pictures of a growth inhibition zone, which had been formed clear, around the disk were taken for each strain, and the results are illustrated in FIGS. 8 to 10.

[1] = tested on: mcr-1-harboring Enterobacter aerogenes strain; assay: Colistin disk diffusion on modified Mueller-Hinton agar, mcr-1; format: cell-based
Experimental: To each MHA thus modified was added protamine (Sigma-Aldrich, St Louis, Mo., USA) at a concentration of 100 μg/ml, and solidification was performed. Then, on a surface of the medium was evenly inoculated each of colistin-susceptible (S) or -resistant (R) Acinetobacter calcoaceticus-baumannii complex (ACB) strain, Pseudomonas aeruginosa ATCC27853 strain, Escherichia coli ATCC25922 strain, and mcr-1-harboring Enterobacter aerogenes strain, and a colistin disk was placed thereon. Subsequently, a diameter of a growth inhibition zone (colistin inhibition zone), which had been formed clear by diffusion of colistin to the agar around the colistin disk, was measured.
As in Example 1, a concentration of agar particles (BD Diagnostic, Sparks, Md., USA) in Mueller-Hinton broth medium (BD Diagnostic) was adjusted to 17 g/L or 5.1 g/L that is 30% of 17 g/L. To select a concentration of protamine, which can enhance diffusion of colistin from a disk without interfering with bacterial growth, while using the protamine at various concentrations, protamine (Sigma-Aldrich, St Louis, Mo., USA) was added to the medium at concentrations of 1 mg/ml, 700 μg/ml, 400 μg/ml, 300 μg/ml, 200 μg/ml, 150 μg/ml, 100 μg/ml, and 50 μg/ml. Each medium thus modified was solidified. Then, on a surface of each medium was evenly inoculated each of colistin-susceptible (S) or -resistant (R) Acinetobacter calcoaceticus-baumannii complex (ACB) strain, Pseudomonas aeruginosa ATCC27853 strain, and mcr-1-harboring Enterobacter aerogenes strain, and a colistin disk was placed thereon. Then, it was determined whether each strain was grown, and a diameter of a growth inhibition zone, which had been formed around the disk, was measured.

KPN K3007_S = assay: Colistin disk diffusion, guanidine hydrochloride medium, K3007_S; format: cell-based, Klebsiella pnemoniae; details: 30% agar
Experimental: as §1

PAE P1477_S = assay: Colistin disk diffusion, guanidine hydrochloride medium, P1477_S; format: cell-based, Pseudomonas aeruginosa; details: 30% agar
Experimental: as §1

ABA A532_R = assay: Colistin disk diffusion, guanidine hydrochloride medium, A532_R; format: cell-based, Acinetobacter baumannii; details: 30% agar
Experimental: as §1

KPN K4036_R = assay: Colistin disk diffusion, guanidine hydrochloride medium, K4036_R; format: cell-based, Klebsiella pnemoniae; details: 30% agar
Experimental: as §1

[2] = tested on: colistin-resistant strains; assay: Colistin disk diffusion, colistin-resistant strains as a group; format: cell-based
Experimental: As in Example 1, a concentration of agar particles (BD Diagnostic, Sparks, Md., USA) in Mueller-Hinton broth medium (BD Diagnostic) was adjusted to 5.1 g/L, which is 30% of 17 g/L, and protamine (Sigma-Aldrich, St Louis, Mo., USA) was added thereto at a concentration of 150 μg/ml or 100 μg/ml. Then, solidification was performed. To compare effects depending on concentrations of agar and protamine, Muller-Hinton agar medium (BD Diagnostic) containing agar at a concentration of 17 g/L and medium obtained by adding, to the Muller-Hinton agar medium, protamine at a concentration of 100 μg/ml were prepared as controls. […] Then, it was determined whether each strain was grown, and a diameter of a growth inhibition zone, which had been formed clear around the disk, was measured. […]
On a surface of each medium thus prepared was evenly inoculated each of colistin-susceptible (S) or -resistant (R) Acinetobacter calcoaceticus-baumannii complex (ACB) strain, Pseudomonas aeruginosa ATCC27853 strain, and mcr-1-harboring Enterobacter aerogenes strain, and a colistin disk was placed thereon. Then, it was determined whether each strain was grown, and a diameter of a colistin inhibition zone, which had been formed clear around the disk, was measured. […]

[3] = guanidine hydrochloride 5 μg/ml
[4] = guanidine hydrochloride 50 μg/ml
[5] = guanidine hydrochloride 500 μg/ml

**Q.** What does the source list for colistin?
**A.** Disk diffusion (mm) (KPN K3070_S; [3]): 17 mm; Disk diffusion (mm) (KPN K3070_S; [4]): 16 mm; Disk diffusion (mm) (KPN K3070_S; [5]): 17 mm; Disk diffusion (mm) ([1]; 30% agar, protamine 50 μg/ml): 9 mm; Diameter (mm) of colistin inhibition zone ([1]; 30% agar, protamine 100 μg/ml): 11 mm; Disk diffusion (mm) ([1]; 30% agar, protamine 100 μg/ml): 9 mm; Disk diffusion (mm) ([1]; 30% agar, protamine 150 μg/ml): 9 mm; Disk diffusion (mm) ([1]; 30% agar, protamine 200 μg/ml): 8 mm; Disk diffusion (mm) ([1]; 30% agar, protamine 300 μg/ml): 6 mm; Disk diffusion (mm) ([1]; 30% agar, protamine 400 μg/ml): 6 mm; Disk diffusion (mm) ([1]; 30% agar, protamine 700 μg/ml): 6 mm; Disk diffusion (mm) ([1]; 30% agar, protamine 1,000 μg/ml): 6 mm; Diameter (mm) of colistin inhibition zone ([1]; 40% agar, protamine 100 μg/ml): 10 mm; Diameter (mm) of colistin inhibition zone ([1]; 50% agar, protamine 100 μg/ml): 11 mm; Diameter (mm) of colistin inhibition zone ([1]; 60% agar, protamine 100 μg/ml): 10 mm; Diameter (mm) of colistin inhibition zone ([1]; 70% agar, protamine 100 μg/ml): 10 mm; Diameter (mm) of colistin inhibition zone ([1]; 80% agar, protamine 100 μg/ml): 9 mm; Diameter (mm) of colistin inhibition zone ([1]; 90% agar, protamine 100 μg/ml): 10 mm; Disk diffusion (mm) ([1]; 100% agar, protamine 50 μg/ml): 9 mm; Diameter (mm) of colistin inhibition zone ([1]; 100% agar, protamine 100 μg/ml): 10 mm; Disk diffusion (mm) ([1]; 100% agar, protamine 100 μg/ml): 9 mm; Disk diffusion (mm) ([1]; 100% agar, protamine 150 μg/ml): 10 mm; Disk diffusion (mm) ([1]; 100% agar, protamine 200 μg/ml): 9 mm; Disk diffusion (mm) ([1]; 100% agar, protamine 300 μg/ml): 10 mm; Disk diffusion (mm) ([1]; 100% agar, protamine 400 μg/ml): 8 mm; Disk diffusion (mm) ([1]; 100% agar, protamine 700 μg/ml): 10 mm; Disk diffusion (mm) ([1]; 100% agar, protamine 1,000 μg/ml): 6 mm; Disk diffusion (mm) (KPN K3007_S; [3]): 17 mm; Disk diffusion (mm) (KPN K3007_S; [4]): 16 mm; Disk diffusion (mm) (KPN K3007_S; [5]): 16 mm; Disk diffusion (mm) (PAE P1477_S; [3]): 16 mm; Disk diffusion (mm) (PAE P1477_S; [4]): 16 mm; Disk diffusion (mm) (PAE P1477_S; [5]): 14 mm; Disk diffusion (mm) (ABA A532_R; [3]): 9 mm; Disk diffusion (mm) (ABA A532_R; [4]): 9 mm; Disk diffusion (mm) (ABA A532_R; [5]): 9 mm; Disk diffusion (mm) (KPN K4036_R; [3]): 16 mm; Disk diffusion (mm) (KPN K4036_R; [4]): 16 mm; Disk diffusion (mm) (KPN K4036_R; [5]): 14 mm; size of a growth inhibition zone in the colistin-resistant strains ([2]; agar 5.1 g/L (30%) compared with 17 g/L, FIG. 1): maintained; size of the growth inhibition zone in the colistin-resistant strains ([2]; agar 5.1 g/L and protamine 100 μg/ml compared with agar 17 g/L, FIGS. 2A to 6B): no changes
